Laboratory results taken from patent US6475719B1, “Determination of factors affecting gene regulation and/or gene replication” (priority 1989, dated 2002).

Assays:
B. subtilis 1A40 cells = assay: Light emission, click beetle luciferase (pCSS962), IPTG induced; format: cell-based, Bacillus subtilis; settings: incubation 2 hours at 30° C.; FIG. 11b
Experimental: Using this construction, the production of luciferase can be turned on in B. subtilis by simple addition of IPTG, which binds to the lac repressor coded by the helper plasmid pBL1 present in the same cell. After IPTG binds to the repressor, the repressor cannot bind to the DNA region between phage T5 promoter and the luciferase gene thus allowing the expression of luciferase. Cells containing both plasmids were cultured overnight in 2×TY containing erythromycin (10 μg/ml, to keep pBL1 in the cell) and kanamycin (10 μg/ml, to keep pCSS952 in the cell). A suitable dilution was made and different amounts of antibiotic were added to the cells. After an incubation period of 2 hours at 30° C., the tubes were measured for light emission after addition of 1 mM D-luciferin substrate in 0.1 M Na-citrate. As shown in FIG. 11b a low amount of 0.1 ug/ml ampicillin and even lower amounts of oxytetracyclin and streptomycin can be detected.

metallothioneins = settings: cadmium added to growth medium to 4×10^−6 molar; eucaryotic cells; cited from earlier work
[1] = test system: E. coli pCSS112/K-12 HI trp(c1857); assay: Light production, bacterial luciferase under PL promoter (pCSS112); format: cell-based, Escherichia coli; settings: concentration in the measuring cuvette; 20 min at 30° C., 42° C. for 10 minutes
Experimental: A comparison is made between plasmids where the expression of bacterial luciferase genes are controlled by either lac (slow) or PL promoter (fast) promoters. E. coli clone pCSS112/K-12 HI trp(c1857) was grown overnight in 2×TY medium containing ampicillin 100 μg/ml. After this a suitable dilution was made in HBSS-buffer or in milk and 500 μl of this was added to 3 ml luminometer tubes. The tubes were equilibrated to 30° C. and different amounts of various toxic substances were added to tubes. Tubes were kept at 30° C. for 20 min, after which the temperature was shifted to 42° C. for 10 minutes. Thereafter the tubes were removed to luminometer chamber which had been equilibrated to 30° C. for automated measurement. As a comparison, an E. coli JM103 clone containing plasmid pCSS108 was used as a control. The control cells were treated similarly but without the heat-shock step. Messanger RNA and protein synthesis were induced in the control cells by adding IPTG to 1 mM. […] In case of chloramphenicol, the kinetics of light production have been shown in FIG. 11a when plasmid pCSS112 in E. coli K-12 HI trp(c1857) strain is used.
The following examples show detection of substances affecting other biosynthetic routes and metabolism of cells. […]
The following figures show the effect of each tested substance as measured by light production. […]

[2] = test system: E. coli pCSS123/JM103 cells; assay: Light production by cells with runaway-replication plasmid pCSS123; format: cell-based, Escherichia coli; settings: 20 min at 30° C., 42° C. one hour, IPTG 1 mM; FIG. 9a
Experimental: E. coli pCSS123/JM103 cells grown overnight were diluted 1:1000. Diluted cells in 2×TY were taken (0.5 ml) and various amounts of antibiotics or other toxic substances were added. These solutions were incubated 20 min at 30° C. After this the samples were transferred to 42° C. for one hour. Each tube was thereafter incubated at 30° C. in a waterbath and IPTG was added to 1 mM and n-decanal to 0.01%. The tubes were transferred to an automated light-gathering device, i.e., luminometer 1251 (LKB-Wallac, Turku, Finland) whose measuring chamber had been equilibrated to 30° C. Measurement of light emission by the cells was done with the auto-mode program so that each tube was automatically measured every two minutes. Data were collected in the memory of the computer for later analyses. […] For clarity reasons only two concentrations of chloramphenicol were compared to the untreated control.

[3] = test system: E. coli pCSS123/JM103 cells; assay: Change in plasmid copy number: total DNA from heat-treated cells, agarose gel; format: cell-based, Escherichia coli; settings: 42° C. for one hour; tested at 0, 1, 10 and 100 μg/ml; FIG. 8
Experimental: The plasmid pCSS123 described in the instant invention is a runaway-replication plasmid, in which a change in copy number can be obtained by shifting the temperature (FIG. 8). The effect of nalidixic acid, an agent known to inhibit DNA replication of cell DNA and especially of plasmid pCSS123 DNA, is shown in FIG. 8.
E. coli pCSS123/JM103 cells were cultivated in 20 ml of 2×TY at 30° C. in four Erlenmeyer bottles until the absorbance measured at 600 nm was 0.3. Nalidixic acid, a known inhibitor of DNA replication, was added to a final concentration of 0, 1, 10 and 100 μg/ml. Parallel samples of 1.5 ml from each bottle were immediately withdrawn to 15 ml tubes and kept at 30° C. for 20 min. The tubes were transferred to 42° C. for one hour and the bottles were left at 30° C. After one hour, both the tubes and the bottles were kept for an additional hour at 30° C. in a shaker. Total-DNA was extracted from 1.5 ml of culture.
Cells were centrifuged and the pellets were suspended in 500 μl 50 mM TRIS-HC1, pH 8.0, 50 mM EDTA. Cells were kept in an ice bath for 30 min and 50 μl of lysozyme (10 mg/ml) was added and kept in an ice bath for 45 min. One hundred μl of STEP solution (0.5% SDS, 50 mM TRIS-HC1, pH 7.5, 0.4 M EDTA) was added and kept at 50° C. for 60 min. After this, 600 μl of phenol was added and the tubes were gently mixed for 5 min and centrifuged 10 min at 12000×g. […]

E. coli pCSS123/BW322 = settings: heat induced at 42° C. for 25 minutes; FIG. 9d
Experimental: Freeze-dried E. coli pCSS123/BW322 were reconstituted with 1.0 ml of 2×TY and 45 μl of this was diluted 1:10 with 2×TY. Five μl of trimethoprim dilutions were added and kept at room temperature for 25 minutes. Cells were heat induced at 42° C. for 25 minutes and equilibrated to 30° C. in a water bath for 10 minutes. n-decanal was added to 0.001% and light production was measured using a LKB-Wallac 1250 manual luminometer. Same concentrations of trimethoprim together with reconstituted, freeze-dried cells which were not heat-treated acted as controls.

CC1(C)S[C@@H]2[C@H](NC(=O)[C@H](N)c3ccccc3)C(=O)N2[C@H]1C(=O)O [ampicillin]
amount that can be detected by light emission (B. subtilis 1A40 cells): 0.1 µg/mL

[Cd] [cadmium]
increase in the production of metallothioneins (metallothioneins): over fifty

O=C(N[C@H](CO)[C@H](O)c1ccc([N+](=O)[O-])cc1)C(Cl)Cl [chloramphenicol]
lowest concentration giving differences in measured activity (light production) from the start of measurement [1]: 0.1 µg/mL

CCn1cc(C(=O)O)c(=O)c2ccc(C)nc21 [nalidixic acid]
amount that can be detected very quickly by light emission [2]: 2 µg | amount of nalidixic acid in whose presence DNA content was unaffected (no heat-induced increase of plasmid DNA) [3]: ≥ 1 µg

COc1cc(Cc2cnc(N)nc2N)cc(OC)c1OC [trimethoprim]
sensitivity of detection by light production (E. coli pCSS123/BW322): sensitivity of the assay is very high
